According to ChEMBL document CHEMBL1201862, “PubChem BioAssay data set” (2004):
Calls of active or inactive are those of the source.

Tests used:
Cytochrome P450 2D6 = Cytochrome P450 2D6 (Homo sapiens, UniProt P10635);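 also: CYP2D6 member of a cytochrome P450 panel assay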
[1] = biological target: Dual specificity tyrosine-phosphorylation-regulated kinase 1A (Rattus norvegicus, UniProt Q63470); format: biochemical, Homo sapiens
Keap1/Nrf2 = Keap1/Nrf2 (Homo sapiens, UniProt Q14145); test: disruptors of Keap1 binding to Nrf2 peptide – biochemical, fluorescence polarization, cherry-picked samples, dose response (AID 588683)
[2] = biological target: T1, RNA-binding protein pos-1 (Caenorhabditis elegans, UniProt G5EF15); test: disruptors of C. elegans POS-1 RNA interaction – biochemical, fluorescence polarization, dose response (AID 1964);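 also: purified POS-1 fused to maltose binding protein made in E. coli; potency of compounds blocking POS-1 binding to fluorescent RNA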
T1 sequence (G5EF15 whole entry): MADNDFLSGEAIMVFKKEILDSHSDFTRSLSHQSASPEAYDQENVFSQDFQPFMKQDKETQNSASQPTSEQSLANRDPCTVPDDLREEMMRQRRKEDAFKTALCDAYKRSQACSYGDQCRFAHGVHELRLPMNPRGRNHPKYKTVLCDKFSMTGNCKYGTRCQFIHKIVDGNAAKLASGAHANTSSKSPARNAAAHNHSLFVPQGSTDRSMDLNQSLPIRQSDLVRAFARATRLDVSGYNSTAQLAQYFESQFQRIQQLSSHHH

[3] = biological target: T2, Zinc finger protein mex-5 (Caenorhabditis elegans, UniProt Q9XUB2); test: potency of MEX-5 RNA-binding blockers – biochemical, C. elegans, fluorescence polarization, dose response (AID 1960)
T2 sequence (Q9XUB2 whole entry): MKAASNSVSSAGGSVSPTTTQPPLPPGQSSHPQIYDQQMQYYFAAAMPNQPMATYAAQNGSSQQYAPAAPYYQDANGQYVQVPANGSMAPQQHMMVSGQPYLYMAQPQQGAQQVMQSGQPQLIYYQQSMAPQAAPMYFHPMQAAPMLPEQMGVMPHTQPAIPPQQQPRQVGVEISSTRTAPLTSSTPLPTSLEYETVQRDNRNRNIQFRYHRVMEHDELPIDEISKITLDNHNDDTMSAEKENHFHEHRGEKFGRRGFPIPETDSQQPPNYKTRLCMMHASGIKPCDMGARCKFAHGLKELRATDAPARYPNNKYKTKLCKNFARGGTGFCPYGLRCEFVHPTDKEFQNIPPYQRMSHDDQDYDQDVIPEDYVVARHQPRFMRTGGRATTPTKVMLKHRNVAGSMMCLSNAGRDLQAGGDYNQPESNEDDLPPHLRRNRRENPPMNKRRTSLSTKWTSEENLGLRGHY

INS1 = test: INS-1E survival protection against cytokine death – cell-based, luminescence, retest, dose response (AID 449756); format: functional; conditions: Rattus norvegicus;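 also: cell death triggered by IL-1 beta plus TNF-alpha plus IFN-gamma mixture; protective hits raise ATP signal compared with cytokine alone wells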
[4] = decrease of insulin promoter-GFP reporter – imaging, high-content screening, mouse beta cells (AID 1628); format: functional; conditions: MIN6
[5] = biological target: T3, Heat shock factor protein 1 (Mus musculus, UniProt P38532); test: decrease of HSF1-responsive luciferase luminescence – cell-based, NIH3T3, dose retest, confirmation (AID 2382); format: functional;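 also: NIH3T3 fibroblasts with HSF1-driven luciferase reporter stressed by proteasome inhibitor MG132; luminescence from HSF1-driven luciferase expression after 8 hours of MG132 stress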
T3 sequence (P38532 whole entry): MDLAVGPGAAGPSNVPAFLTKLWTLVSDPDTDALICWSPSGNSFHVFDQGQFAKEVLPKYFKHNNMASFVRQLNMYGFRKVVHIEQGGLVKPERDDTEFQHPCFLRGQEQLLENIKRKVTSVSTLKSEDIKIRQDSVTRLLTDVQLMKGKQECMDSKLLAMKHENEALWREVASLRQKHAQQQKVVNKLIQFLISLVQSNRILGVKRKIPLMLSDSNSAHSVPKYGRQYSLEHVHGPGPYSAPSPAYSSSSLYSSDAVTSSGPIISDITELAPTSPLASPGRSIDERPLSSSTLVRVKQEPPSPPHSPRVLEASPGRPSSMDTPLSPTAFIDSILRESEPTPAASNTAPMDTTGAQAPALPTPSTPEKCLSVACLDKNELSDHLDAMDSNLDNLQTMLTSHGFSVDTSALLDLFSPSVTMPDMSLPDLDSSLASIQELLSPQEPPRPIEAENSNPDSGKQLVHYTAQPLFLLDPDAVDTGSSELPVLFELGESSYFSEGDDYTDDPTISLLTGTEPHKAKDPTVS

[6] = MIN6 cell viability loss – mouse insulinoma, cytotoxicity control, dose response (AID 2122); format: functional;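 also: confirmatory high-throughput counterscreen run to flag cytotoxic compounds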
[7] = reduction of Shn3 3'UTR-driven luciferase in osteoblasts – cell-based, Clone20 osteoblasts, firefly luciferase, cherry-picked, dose response (AID 624132); format: functional;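 also: firefly luciferase luminescence from reporter carrying the Shn3 3'UTR in osteoblasts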
[8] = non-specific 3'UTR reporter inhibition in Clone20-Shn3RL – cell-based, Renilla luciferase, cherry-picked, counter-screen for Shn3 inhibitor project, dose response (AID 624133); format: functional
A-375 = test: proliferation inhibition in MITF-low A375 cells – cell-based, cherry-pick samples, set 2, counter-screen for MITF modulator project, dose response (AID 540335); format: functional; conditions: Homo sapiens
[9] = biological target: T4, Microphthalmia-associated transcription factor (Homo sapiens, UniProt O75030); test: reducers of TRPM1 reporter luminescence, concentration series – cell-based, SK-MEL-5, cherry-picked, set 3, MITF inhibitor project, dose response (AID 493073); format: functional;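 also: SK-MEL-5 melanoma cells with luciferase driven by the MITF target TRPM1 promoter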
T4 sequence (O75030 whole entry): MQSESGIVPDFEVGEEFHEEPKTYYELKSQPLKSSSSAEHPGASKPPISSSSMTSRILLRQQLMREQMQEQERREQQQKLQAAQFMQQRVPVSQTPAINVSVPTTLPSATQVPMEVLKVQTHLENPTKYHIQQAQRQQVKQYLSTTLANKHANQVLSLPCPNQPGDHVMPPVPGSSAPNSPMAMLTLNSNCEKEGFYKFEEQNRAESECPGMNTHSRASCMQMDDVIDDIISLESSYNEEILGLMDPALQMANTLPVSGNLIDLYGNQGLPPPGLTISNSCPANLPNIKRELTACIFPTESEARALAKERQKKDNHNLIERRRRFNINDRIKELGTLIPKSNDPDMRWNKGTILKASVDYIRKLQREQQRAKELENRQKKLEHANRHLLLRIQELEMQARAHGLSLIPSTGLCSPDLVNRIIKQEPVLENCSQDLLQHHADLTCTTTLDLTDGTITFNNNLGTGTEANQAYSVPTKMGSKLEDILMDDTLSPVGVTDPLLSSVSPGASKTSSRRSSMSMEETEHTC

[10] = loss of viability in HepG2 cells – cell-based, CellTiter-Glo, cherry-picked, cytotoxicity control for Shn3 inhibitor project, dose response (AID 624134); format: functional
[11] = biological target: T5, Ubiquitin-conjugating enzyme E2 N (Homo sapiens, UniProt P61088); format: functional;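 also: Dose-response confirmation in a TR-FRET assay detecting UBC13-driven polyubiquitin chain formation, inhibition measured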
T5 sequence (P61088 whole entry): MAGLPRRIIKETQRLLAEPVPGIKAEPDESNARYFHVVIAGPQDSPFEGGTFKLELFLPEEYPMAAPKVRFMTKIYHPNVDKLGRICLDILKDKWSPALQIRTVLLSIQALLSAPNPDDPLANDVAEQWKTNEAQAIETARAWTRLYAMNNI

H9c2 = test: cells; format: functional, cell-based; conditions: Rattus norvegicus, H9c2, Myocardium;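 also: confirmatory concentration-response retest of ultra-high-throughput screening hits for modulation of myocardial damage; cell death induced by hydrogen peroxide oxidative stress; compound pretreatment for 60 min then peroxide exposure for 2 h; potency is for protecting the cells against peroxide damage rather than for killing them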

Chain of Cytochrome P450 2D6 (P10635 whole entry): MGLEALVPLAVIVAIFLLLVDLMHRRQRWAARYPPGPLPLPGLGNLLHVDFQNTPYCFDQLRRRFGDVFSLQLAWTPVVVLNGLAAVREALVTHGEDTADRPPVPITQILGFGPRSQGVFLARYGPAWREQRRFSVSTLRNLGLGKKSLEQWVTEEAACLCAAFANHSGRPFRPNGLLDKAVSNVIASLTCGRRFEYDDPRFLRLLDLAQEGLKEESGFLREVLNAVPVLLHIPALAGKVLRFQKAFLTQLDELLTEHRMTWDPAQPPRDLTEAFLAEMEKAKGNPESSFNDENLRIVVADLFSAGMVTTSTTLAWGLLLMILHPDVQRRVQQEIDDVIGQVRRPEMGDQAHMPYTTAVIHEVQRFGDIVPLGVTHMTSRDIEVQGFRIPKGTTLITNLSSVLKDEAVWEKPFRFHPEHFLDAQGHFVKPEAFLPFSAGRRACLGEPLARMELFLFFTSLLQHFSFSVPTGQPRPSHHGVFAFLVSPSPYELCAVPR
Chain of Keap1/Nrf2 (Q16236 whole entry, the tested form may be a part): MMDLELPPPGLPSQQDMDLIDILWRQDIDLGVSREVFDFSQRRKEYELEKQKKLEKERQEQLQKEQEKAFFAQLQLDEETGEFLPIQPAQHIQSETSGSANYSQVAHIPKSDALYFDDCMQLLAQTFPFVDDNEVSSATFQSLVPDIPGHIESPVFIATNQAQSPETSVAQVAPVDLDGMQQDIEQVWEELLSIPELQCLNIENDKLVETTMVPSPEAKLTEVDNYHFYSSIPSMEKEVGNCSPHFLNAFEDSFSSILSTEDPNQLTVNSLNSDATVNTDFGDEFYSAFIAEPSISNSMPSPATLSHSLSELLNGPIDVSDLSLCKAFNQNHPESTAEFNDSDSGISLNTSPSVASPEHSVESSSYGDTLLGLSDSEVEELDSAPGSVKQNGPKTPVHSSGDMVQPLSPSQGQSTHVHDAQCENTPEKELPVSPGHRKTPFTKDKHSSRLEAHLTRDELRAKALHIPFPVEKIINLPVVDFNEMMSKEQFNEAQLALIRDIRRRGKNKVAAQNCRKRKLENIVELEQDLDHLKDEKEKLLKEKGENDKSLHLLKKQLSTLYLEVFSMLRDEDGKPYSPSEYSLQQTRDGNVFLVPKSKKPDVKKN
Chain of Keap1/Nrf2 (Q14145 whole entry, the tested form may be a part): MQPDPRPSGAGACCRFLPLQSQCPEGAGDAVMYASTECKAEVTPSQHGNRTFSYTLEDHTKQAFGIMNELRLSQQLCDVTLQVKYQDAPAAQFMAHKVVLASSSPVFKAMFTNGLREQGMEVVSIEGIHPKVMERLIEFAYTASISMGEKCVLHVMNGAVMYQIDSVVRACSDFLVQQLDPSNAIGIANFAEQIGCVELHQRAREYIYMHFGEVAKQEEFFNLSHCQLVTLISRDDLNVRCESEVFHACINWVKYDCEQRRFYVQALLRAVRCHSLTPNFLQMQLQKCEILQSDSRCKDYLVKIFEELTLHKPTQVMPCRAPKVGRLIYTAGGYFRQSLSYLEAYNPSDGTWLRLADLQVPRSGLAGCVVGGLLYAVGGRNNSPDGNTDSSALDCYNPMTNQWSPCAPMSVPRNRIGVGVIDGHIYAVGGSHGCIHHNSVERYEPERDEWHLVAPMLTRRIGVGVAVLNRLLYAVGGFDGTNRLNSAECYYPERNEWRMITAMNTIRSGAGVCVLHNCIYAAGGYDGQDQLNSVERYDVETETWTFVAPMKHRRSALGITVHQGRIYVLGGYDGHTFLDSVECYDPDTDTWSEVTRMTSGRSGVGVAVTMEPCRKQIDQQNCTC

c1ccc(C2OCC3(CO2)COC(c2ccccc2)OC3)cc1 (stereo not drawn)
AC50 (Cytochrome P450 2D6): inconclusive

O=C(Cc1c(F)cccc1Cl)Nc1nc2ccccc2s1
AC50 [1]: 7.77 µM (active)

CCCCOc1ccc(/C=C2/Sc3ccccc3C2=O)cc1
AC50 (Keap1/Nrf2): > 52 µM (inactive)
EC50 [2]: 158 µM (inconclusive)
EC50 [3]: 177 µM (inconclusive)

COc1cc(N2CN=c3s/c(=C\c4ccccn4)c(=O)n3C2)cc(OC)c1OC
AC50 [1]: 3.08 µM (active)

Cc1ccc(Cn2c(=N)n(CC(=O)c3ccccc3)c3ccccc32)cc1
AC50 (INS1): 7.43 µM (active)
IC50 [4]: 1.8 µM (active)
EC50 [5]: > 195 µM (not active)
IC50 [6]: 1.86 µM (active)

O=C(O)c1nn(-c2ccccc2-c2nnc(O)nc2O)c(=O)[nH]c1=O
AC50 (Cytochrome P450 2D6): inconclusive

CC(Oc1cccc(Br)c1)C(=O)NNC(=O)c1ccccn1 (stereo not drawn)
AC50 [7]: 3.36 µM (active)
AC50 [8]: 3.19 µM (active)
AC50 (A-375): 41.2 µM (active)
AC50 [9]: 7.18 µM (active)
AC50 [10]: 49.4 µM (active)
IC50 [11]: > 20 µM (inactive)
IC50 (H9c2): > 79 µM (inactive)
